The text below walks through data of patent US20090069300A1, “ISOQUINOLINYL AND ISOINDOLINYL DERIVATIVES AS HISTAMINE-3 ANTAGONISTS” (Wyeth, priority 2007, published 2009).

Where a name gives a salt, the structure may show the parent alone.

T1 sequence (Q9Y5N1 whole entry): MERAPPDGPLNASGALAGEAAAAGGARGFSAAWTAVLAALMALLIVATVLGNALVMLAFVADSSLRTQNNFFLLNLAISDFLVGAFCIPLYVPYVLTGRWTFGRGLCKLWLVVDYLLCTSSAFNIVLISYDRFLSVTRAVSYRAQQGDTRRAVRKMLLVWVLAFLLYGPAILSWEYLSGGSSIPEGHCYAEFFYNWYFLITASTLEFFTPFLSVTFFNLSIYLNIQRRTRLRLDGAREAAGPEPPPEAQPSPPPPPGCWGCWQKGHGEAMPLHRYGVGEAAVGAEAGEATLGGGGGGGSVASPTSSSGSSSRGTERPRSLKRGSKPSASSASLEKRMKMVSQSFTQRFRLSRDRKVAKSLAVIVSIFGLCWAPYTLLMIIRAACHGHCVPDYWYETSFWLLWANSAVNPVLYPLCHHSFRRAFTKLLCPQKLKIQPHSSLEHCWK

The first assay addresses T1, Human Histamine H3 Receptor (Homo sapiens, UniProt Q9Y5N1).
T1 construct: expressed in transfected cells; host or cells: HEK293T (stably transfected; membranes prepared from the cells)
The assay is described as follows: Methyl histamine binding in human histamine H3 receptor cell line. To be noted: membranes of stably transfected HEK293T cells; methyl histamine radioligand 1 nM; one hour incubation at 30° C.; Ki from IC50 by Cheng-Prusoff; read-out: H3 Binding Ki. As for the experimental part: Evaluation of Methyl Histamine Binding in Human Histamine H3 Receptor Cell Line
The affinity of test compounds for the histamine 3 (H3) receptor is evaluated in the following manner. […] Cells are scraped from the plate, transferred to centrifuge tubes, washed one time in PBS by centrifugation in a Sorvall RT7 Plus centrifuge (2000 rpm 10 minutes, 4° C.). The resulting pellets are stored at −80° C. until ready for use. Cells are re-suspended in buffer (50 mM Tris pH=7.5) and placed in a Dounce homogenizer, douncing ten times to homogenize cells. The homogenate is spun down by centrifugation (Sorvall RT7 Plus, 1800 rpm 10 minutes, 4° C.). The supernatant is placed in a Corex tube and spun down by centrifugation (Sorvall RC 5c Plus, 17,000 rpm 20 minutes, 4° C.). The pellet is resuspended in buffer (50 mM Tris, pH 7.5). Protein concentration (ug/ul) is determined using the Micro-BCA Protein Determination. The binding assay is set up in a 96 well microtiter plate in a total volume of 250 uL. Non-specific binding is determined in the presence of 10 uM clobenpropit. The final radioligand concentration is 1 nM. The test compound is serially diluted using the Beckman Biomek2000 to a final approximate range of 100 uM to 100 pM. Membranes are suspended in buffer, homogenized in 2 bursts of ten seconds using a Vitris mechanical homogenizer set at power setting 5. Ten μg of membranes are added to each well. Following a one hour incubation at 30° C., the reaction is terminated by the addition of ice cold buffer and rapid filtration with a Packard Filtermate Harvester through a GF/B filter pre-soaked with 1% PEI for one hour. The plate is dried for one hour at 37° C. and 60 μL Microscint Scintillant is added to each well. The CPM per well is measured on a Packard Top Count NXT. Ki values are determined in nM. […] CPM values are expressed as % specific binding and plotted vs compound concentration. A curve is fitted using a four-parameter logistic fit and the IC50 value is determined. The Ki is calculated from this using the Cheng-Prusoff equation: […]=IC50/1+(L/Kd) where L=concentration of free radioligand used in the assay, and Kd is the dissociation constant of the radioligand for the receptor. L is determined for each experiment by counting an aliquot of the diluted radioligand (corresponding to that added to each well) and the Kd has previously been determined under identical conditions for this cell line/radioligand.
Take `COC(=O)c1ccc(-c2ccc3c(c2)CCN(CCN2CCC[C@H]2C)C3=O)cc1` [Example 25, methyl 4-(2-{2-[(2R)-2-methylpyrrolidin-1-yl]ethyl}-1-oxo-1,2,3,4-tetrahydroiso-quinolin-6-yl)benzoate]: the Ki was < 0.01 µM.

Still in this assay, the particulars now being: read-out: H3 Binding Ki.
`C[C@@H]1CCCN1C(=O)c1ccc(-c2ccc3c(c2)CCN(CCN2CCCC2)C3)cc1` [Example 187]: the Ki is 0.0101 to 0.025 µM.
In the case of `C[C@@H]1CCCN1CCN1CCc2cc(C(=O)NC3CCCCC3)ccc2C1=O` [Example 147, N-cyclohexyl-2-{2-[(2R)-2-methylpyrrolidin-1-yl]ethyl}-1-oxo-1,2,3,4-tetrahydroisoquinoline-6-carboxamide], the Ki was < 0.01 µM.
Still for that read-out and setting: the value for `O=C1c2ccc(-c3ccc(OC(F)(F)F)cc3)cc2CCN1CCN1CCCC1` [Example 14, 2-(2-pyrrolidin-1-ylethyl)-6-[4-(trifluoromethoxy)phenyl]-3,4-dihydroisoquinolin-1(2H)-one] was 0.0101 to 0.025 µM; that for `COC1CCN(C(=O)c2ccc(-c3ccc4c(c3)CCN(CCN3CCCC3)C4=O)cc2)C1` (stereo not drawn) [Example 127, 6-{4-[(3-methoxypyrrolidin-1-yl)carbonyl]phenyl}-2-(2-pyrrolidin-1-ylethyl)-3,4-dihydroisoquinolin-1(2H)-one] was < 0.01 µM.
On the same count and under the same terms, under `CNC(=O)c1ccc(-c2ccc3c(c2)CCN(CCN2CCCC2)C3=O)c(F)c1` [Example 139, 3-fluoro-N-methyl-4-[1-oxo-2-(2-pyrrolidin-1-ylethyl)-1,2,3,4-tetrahydroisoquinolin-6-yl]benzaimde] stands < 0.01 µM; under `CC(C)OCCNC(=O)c1ccc(-c2ccc3c(c2)CCN(CCN2CCCC2)C3=O)cc1` [Example 70, N-(2-isopropoxyethyl)-4-[1-oxo-2-(2-pyrrolidin-1-ylethyl)-1,2,3,4-tetrahydroisoquinolin-6-yl]benzamide], < 0.01 µM.
On the same count and under the same terms, under `O=C(c1ccc(-c2ccc3c(c2)CCN(CCN2CCCC2)C3=O)c(F)c1)N1CCCC1` [Example 138, 6-[2-fluoro-4-(pyrrolidin-1-ylcarbonyl)phenyl]-2-(2-pyrrolidin-1-ylethyl)-3,4-dihydroisoquinolin-1(2H)-one] stands < 0.01 µM; under `CCNC(=O)c1ccc(-c2ccc3c(c2)C(=O)N(CCN2CCC[C@H]2C)CC3)cc1` [Example 84, N-ethyl-4-(2-{2-[(2R)-2-methylpyrrolidin-1-yl]ethyl}-1-oxo-1,2,3,4-tetrahydroiso-quinolin-7-yl)benzamide], < 0.01 µM; under `O=C1c2ccc(Cn3cnc4ccccc43)cc2CN1CCN1CCCC1` [Example 112, 5-(1H-benzimidazol-1-ylmethyl)-2-(2-pyrrolidin-1-ylethyl)iso-indolin-1-one], 0.0251 to 0.05 µM.
As for `O=C1c2ccc(-c3ccc(C(F)(F)F)cc3)cc2CCN1CCN1CCCC1` [Example 22, 2-(2-pyrrolidin-1-ylethyl)-6-[4-(trifluoromethyl)phenyl]-3,4-dihydroisoquinolin-1(2H)-one], the Ki is < 0.01 µM.
As to `O=C(NC1CCC1)c1ccc(-c2ccc3c(c2)CCN(CCN2CCCC2)C3=O)cc1` [Example 63, N-cyclobutyl-4-[1-oxo-2-(2-pyrrolidin-1-ylethyl)-1,2,3,4-tetrahydroisoquinolin-6-yl]benzamide], the Ki is < 0.01 µM.
Still for that read-out and setting: under `C[C@H]1CCCN1C(=O)c1ccc(-c2ccc3c(c2)CCN(CCN2CCCC2)C3=O)cc1` [Example 81, 6-(4-{[(2S)-2-methylpyrrolidin-1-yl]carbonyl}phenyl)-2-(2-pyrrolidin-1-ylethyl)-3,4-dihydroisoquinolin-1(2H)-one] stands < 0.01 µM.
Still for that read-out and setting: under `N#Cc1ccc(Oc2ccc3c(c2)CCN(CCN2CCCC2)C3=O)cc1` [Example 50, 4-{[1-oxo-2-(2-pyrrolidin-1-ylethyl)-1,2,3,4-tetrahydroisoquinolin-6-yl]oxy}benzonitrile] stands < 0.01 µM.
Turning to `O=C(c1ccc(-c2ccc3c(c2)CCN(CCN2CCCC2)C3)cc1)N1CCCCC1` [Example 185, 6-[4-(piperidin-1-ylcarbonyl)phenyl]-2-(2-pyrrolidin-1-ylethyl)-1,2,3,4-tetrahydroisoquinoline], the inhibitory constant (Ki) was in the range of 0.0101 to 0.025 µM.
For `O=C1c2ccc(-n3cnc4ccccc43)cc2CCN1CCN1CCCC1` [Example 108, 6-(1H-benzimidazol-1-yl)-2-(2-pyrrolidin-1-ylethyl)-3,4-dihydroisoquinolin-1(2H)-one Fumarate Salt], the inhibition constant Ki was < 0.01 µM.
As for `O=C(NCc1ccco1)c1ccc(-c2ccc3c(c2)CCN(CCN2CCCC2)C3=O)cc1` [Example 125, N-(2-furylmethyl)-4-[1-oxo-2-(2-pyrrolidin-1-ylethyl)-1,2,3,4-tetrahydroisoquinolin-6-yl]benzamide], the Ki was < 0.01 µM.
Take `C[C@@H]1CCCN1CCN1CCc2cc(-c3ccc(C(=O)NC4CCCC4)cc3)ccc2C1=O` [Example 80, N-cyclopentyl-4-(2-{2-[(2R)-2-methylpyrrolidin-1-yl]ethyl}-1-oxo-1,2,3,4-tetrahydroisoquinolin-6-yl)benzamide]: the inhibition constant (Ki) is < 0.01 µM.
On the same count and under the same terms, the value for `C[C@@H]1CCCN1CCN1CCc2cc(C(=O)N3CCCCC3)ccc2C1=O` [Example 146, 2-{2-[(2R)-2-methylpyrrolidin-1-yl]ethyl}-6-(piperidin-1-ylcarbonyl)-3,4-dihydroisoquinolin-1(2H)-one] was < 0.01 µM; that for `CON(C)C(=O)c1ccc(-c2ccc3c(c2)CCN(CCN2CCCC2)C3=O)cc1` [Example 102, N-methoxy-N-methyl-4-(1-oxo-2-(2-(pyrrolidin-1-yl)ethyl)-1,2,3,4-tetrahydroisoqui-nolin-6-yl)benzamide] was < 0.01 µM; that for `CCN(C)C(=O)c1ccc(-c2ccc3c(c2)CCN(CCN2CCCC2)C3=O)cc1` [Example 124, N-ethyl-N-methyl-4-[1-oxo-2-(2-pyrrolidin-1-ylethyl)-1,2,3,4-tetrahydroisoquinolin-6-yl]benzamide] was < 0.01 µM.
Same read-out and setting: under `O=C(c1ccc(Oc2ccc3c(c2)CCN(CCN2CCCC2)C3=O)cc1)N1CCCC1` [Example 98, 6-[4-(pyrrolidin-1-ylcarbonyl)phenoxy]-2-(2-pyrrolidin-1-ylethyl)-3,4-dihydroiso-quinolin-1(2H)-one] stands < 0.01 µM; under `O=C(c1ccc(-c2ccc3c(c2)CCN(CCN2CCCC2)C3=O)cc1)N1CCOCC1` [Example 122, 6-[4-(morpholin-4-ylcarbonyl)phenyl]-2-(2-pyrrolidin-1-ylethyl)-3,4-dihydroisoquinolin-1(2H)-one], < 0.01 µM; under `N#Cc1cccc(-c2ccc3c(c2)CCN(CCCN2CCCC2)C3=O)c1` [Example 33, 3-[1-oxo-2-(3-pyrrolidin-1-ylpropyl)-1,2,3,4-tetrahydroisoquinolin-6-yl]benzonitrile], 0.0251 to 0.05 µM.
With `O=C1c2ccc(-c3ccccc3)cc2CCN1CCN1CCCC1` [Example 16, 6-phenyl-2-(2-pyrrolidin-1-ylethyl)-3,4-dihydroisoquinolin-1(2H)-one], the Ki lay in the range of 0.0101 to 0.025 µM.
Still for that read-out and setting: the value for `CNC(=O)c1ccc(-c2ccc3c(c2)CN(CCN2CCC[C@H]2C)C3=O)cc1` [Example 118, N-methyl-4-(2-{2-[(2R)-2-methylpyrrolidin-1-yl]ethyl}-1-oxo-2,3-dihydro-1H-isoindol-5-yl)benzamide] was 0.0501 to 0.1 µM.
For the compound `CNC(=O)c1ccc(-c2ccc3c(c2)CCN(CCN2CCC[C@H]2C)C3=O)cc1` [Example 78, N-methyl-4-(2-{2-[(2R)-2-methylpyrrolidin-1-yl]ethyl}-1-oxo-1,2,3,4-tetrahydroisoquinolin-6-yl)benzamide], the inhibition constant Ki is < 0.01 µM.
As for `COC[C@H](C)NC(=O)c1ccc(-c2ccc3c(c2)CCN(CCN2CCCC2)C3=O)cc1` [Example 126, N-[(1S)-2-methoxy-1-methylethyl]-4-[1-oxo-2-(2-pyrrolidin-1-ylethyl)-1,2,3,4-tetrahydroisoquinolin-6-yl]benzamide], the inhibition constant (Ki) was < 0.01 µM.
Same read-out and setting: the value for `O=C(c1cc(-c2ccc3c(c2)CCN(CCN2CCCC2)C3=O)ccc1F)N1CCCC1` [Example 131, 6-[4-fluoro-3-(pyrrolidin-1-ylcarbonyl)phenyl]-2-(2-pyrrolidin-1-ylethyl)-3,4-dihydroisoquinolin-1-(2H)-one] was < 0.01 µM; that for `CC(C)NC(=O)c1ccc(-c2ccc3c(c2)CCN(CCN2CCCC2)C3=O)cc1` [Example 61, N-isopropyl-4-[1-oxo-2-(2-pyrrolidin-1-ylethyl)-1,2,3,4-tetrahydroisoquinolin-6-yl]benzamide] was < 0.01 µM.
